PubChem BioAssay AID330 (DTP/NCI, 2004)
Where “and” joins values, the source holds several entries; their conditions need not be identical. Identical values can stand only once. Inconclusive results and toxic doses are left out. How the source made its calls: active means survival T/C of 150% or more; inactive means T/C below 125% in these data.

Tested on: P388 leukemia ip, CD2F1 mice, survival T/C
Experiment: NCI In Vivo Anticancer Drug Screen. Data for tumor model P388 Leukemia (intraperitoneal) in CD2F1 (CDF1) mice
Details: endpoint: median survival time, higher = longer survival
In short: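 Mice carrying the transplanted tumor received test compound or vehicle. Survival was recorded in each group, and the value is the treated-group measurement divided by that of the vehicle-treated control group.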

[1] = dose: 50.0 mg/kg/injection, schedule: Q01DX009 (ip), vehicle: saline with Tween-80
[2] = dose: 50.0 mg/kg/injection, schedule: Q01DX009 (ip), vehicle: saline
[3] = dose: 100.0 mg/kg/injection, schedule: Q01DX009 (ip), vehicle: saline with Tween-80
[4] = dose: 200.0 mg/kg/injection, schedule: Q01DX009 (ip), vehicle: saline with Tween-80
[5] = dose: 200.0 mg/kg/injection, schedule: Q01DX009 (ip), vehicle: saline
[6] = dose: 50.0 mg/kg/injection, schedule: Q01DX005 (ip), vehicle: Klucel (hydroxypropylcellulose) (HPC)
[7] = dose: 100.0 mg/kg/injection, schedule: Q01DX005 (ip), vehicle: Klucel (hydroxypropylcellulose) (HPC)
[8] = dose: 200.0 mg/kg/injection, schedule: Q01DX005 (ip), vehicle: Klucel (hydroxypropylcellulose) (HPC)
[9] = dose: 200.0 mg/kg/injection, schedule: Q01DX005 (ip), vehicle: saline with Tween-80
[10] = dose: 50.0 mg/kg/injection, schedule: Q01DX005 (ip), vehicle: saline with Tween-80
[11] = dose: 100.0 mg/kg/injection, schedule: Q01DX005 (ip), vehicle: saline with Tween-80
[12] = dose: 25.0 mg/kg/injection, schedule: Q01DX005 (ip), vehicle: Klucel (hydroxypropylcellulose) (HPC)
[13] = dose: 60.0 mg/kg/injection, schedule: Q01DX005 (ip), vehicle: saline with Tween-80
[14] = dose: 120.0 mg/kg/injection, schedule: Q01DX005 (ip), vehicle: saline with Tween-80
[15] = dose: 240.0 mg/kg/injection, schedule: Q01DX005 (ip), vehicle: saline with Tween-80
[16] = dose: 50.0 mg/kg/injection, schedule: Q01DX009 (ip), vehicle: Klucel (hydroxypropylcellulose) (HPC)
[17] = dose: 100.0 mg/kg/injection, schedule: Q01DX009 (ip), vehicle: Klucel (hydroxypropylcellulose) (HPC)
[18] = dose: 200.0 mg/kg/injection, schedule: Q01DX009 (ip), vehicle: Klucel (hydroxypropylcellulose) (HPC)
[19] = dose: 25.0 mg/kg/injection, schedule: Q01DX009 (ip), vehicle: saline with Tween-80
[20] = dose: 12.5 mg/kg/injection, schedule: Q01DX005 (ip), vehicle: Klucel (hydroxypropylcellulose) (HPC)
[21] = dose: 12.5 mg/kg/injection, schedule: Q01DX009 (ip), vehicle: saline with Tween-80
[22] = dose: 50.0 mg/kg/injection, schedule: Q01DX001 (ip), vehicle: Klucel (hydroxypropylcellulose) (HPC)

Measured: T/C

C=C1C2(O)CCC(C2)C1(C)C (stereo not drawn)
inactive: dose: 60.0 mg/kg/injection, schedule: Q01DX005 (ip), vehicle: Klucel (hydroxypropylcellulose) (HPC) 108 % of control | dose: 120.0 mg/kg/injection, schedule: Q01DX005 (ip), vehicle: Klucel (hydroxypropylcellulose) (HPC) 106 % of control | dose: 240.0 mg/kg/injection, schedule: Q01DX005 (ip), vehicle: Klucel (hydroxypropylcellulose) (HPC) 100 % of control

COC(=O)c1ccoc1
inactive: [1] 96 % of control | [2] 116 % of control | [3] 108 % of control | [4] 123 % of control | [5] 113 % of control | dose: 400.0 mg/kg/injection, schedule: Q01DX009 (ip), vehicle: saline 107 % of control

CCCn1c(CC)nc2c(cnn2C)c1=O
inactive: [6] 101 % of control | [7] 101 % of control | [8] 101 % of control

CCOC(=O)C(C)c1ccccc1 (stereo not drawn)
inactive: [2] 96 % of control | dose: 100.0 mg/kg/injection, schedule: Q01DX009 (ip), vehicle: saline 105 % of control | [5] 99 % of control

COc1cc2cc[n+]3c4ccc([N+](=O)[O-])cc4ccc3c2cc1OC
inactive: [9] 89 % of control

COCNC(=S)c1ccc(C(N)=O)nc1C(=O)NC(C)(C)C
inactive: [10] 98 % of control | [11] 100 % of control | [9] 99 % of control

O=C1SC(c2ccccc2)=S=C1c1ccccc1
inactive: [1] 104 % of control | [3] 104 % of control | [4] 124 % of control

COC(=O)NC1=CCC(C(C)(C)C)CC1 (stereo not drawn)
inactive: [12] 108 % of control | [6] 113 % of control | [7] 106 % of control | [8] 103 % of control

CC1(C)CCc2c(cc3c(c2O)CCC(C)(C)O3)O1
inactive: [13] 109 % of control | [14] 117 % of control | [15] 100 % of control

O=S(=O)(Nc1ccc2ccc3cccc4ccc1c2c34)c1ccccc1
inactive: [16] 98 % of control | [17] 100 % of control | [18] 100 % of control

CSC1C(=O)Nc2ccc([N+](=O)[O-])cc21 (stereo not drawn)
inactive: [19] 96 % of control | [1] 105 % of control | [3] 113 % of control

CN(C)C1=CC(=O)NC2CCCCC12 (stereo not drawn)
inactive: [6] 95 % of control | [7] 98 % of control | [8] 105 % of control

CCn1c(=O)n(Cc2ccccc2)c(=O)c2ccccc21
inactive: [13] 93 % of control | [14] 93 % of control | [15] 91 % of control

C/C(=N\NC(=S)Nc1cccc(F)c1)c1ccccn1
inactive: [10] 109 % of control | [11] 112 % of control | [9] 119 % of control

CCOP(=S)(Nc1ccc(F)cc1F)OCC
inactive: dose: 100.0 mg/kg/injection, schedule: Q04DX002 (ip), vehicle: saline with Tween-80 113 % of control | dose: 200.0 mg/kg/injection, schedule: Q04DX002 (ip), vehicle: saline with Tween-80 95 % of control

COc1cc(N)c(S(=O)(=O)O)cc1N=N/C(=N/Nc1cc(S(=O)(=O)O)c(N)cc1OC)C(=O)Nc1ccccc1
inactive: [6] 107 % of control | [7] 104 % of control | [8] 109 % of control

CCOc1ccc2c(O)csc2c1
inactive: dose: 100.0 mg/kg/injection, schedule: Q04DX003 (ip), vehicle: saline with Tween-80 100 % of control | dose: 200.0 mg/kg/injection, schedule: Q04DX003 (ip), vehicle: saline with Tween-80 100 % of control | dose: 400.0 mg/kg/injection, schedule: Q04DX003 (ip), vehicle: saline with Tween-80 90 % of control

CCCCCCCCCCCC(=O)C(=O)c1ccc(O)cc1O
inactive: [16] 110 % of control | [17] 107 % of control | [18] 109 % of control

CCOC(=O)NN(C(=O)OCC)C(C(C)=O)C(C)=NCCN=C(C)C(C(C)=O)N(NC(=O)OCC)C(=O)OCC.[Cu] (stereo not drawn)
inactive: [20] 100 % of control | [12] 105 % of control | [6] 100 % of control and 107 % of control

C=CCN=C([S-])Nc1cccc(C(=O)O)c1.[Au+].[Na+]
inactive: dose: 60.0 mg/kg/injection, schedule: Q01DX005 (ip), vehicle: saline 106 % of control | dose: 120.0 mg/kg/injection, schedule: Q01DX005 (ip), vehicle: saline 106 % of control | dose: 240.0 mg/kg/injection, schedule: Q01DX005 (ip), vehicle: saline 108 % of control

CN(C)C1CCc2ccc3ccccc3c2C1=O (stereo not drawn)
inactive: [6] 98 % of control | [7] 103 % of control

Cc1nc(C(=O)NO)c2ccccc2n1
inactive: [21] 102 % of control | [19] 102 % of control | [1] 98 % of control and 97 % of control | [4] 103 % of control

C=C1C(=O)OC2C(OC(C)=O)C(C(=O)OC)CC(O)C/C(CO)=C\C(OC(=O)/C(C)=C/C)C12 (stereo not drawn)
inactive: dose: 2.0 mg/kg/injection, schedule: Q01DX009 (ip), vehicle: Klucel (hydroxypropylcellulose) (HPC) 115 % of control | dose: 4.0 mg/kg/injection, schedule: Q01DX009 (ip), vehicle: Klucel (hydroxypropylcellulose) (HPC) 108 % of control | dose: 8.0 mg/kg/injection, schedule: Q01DX009 (ip), vehicle: Klucel (hydroxypropylcellulose) (HPC) 110 % of control | dose: 16.0 mg/kg/injection, schedule: Q01DX009 (ip), vehicle: Klucel (hydroxypropylcellulose) (HPC) 100 % of control

c1ccc(C2=C(c3ccccc3)c3ccccc3CO2)cc1
inactive: dose: 100.0 mg/kg/injection, schedule: Q01DX001 (ip), vehicle: saline 105 % of control | dose: 200.0 mg/kg/injection, schedule: Q01DX001 (ip), vehicle: saline 100 % of control | dose: 400.0 mg/kg/injection, schedule: Q01DX001 (ip), vehicle: saline 100 % of control

NC1(c2ccccc2)CC2CCC1C2 (stereo not drawn)
inactive: dose: 12.5 mg/kg/injection, schedule: Q01DX001 (ip), vehicle: Klucel (hydroxypropylcellulose) (HPC) 100 % of control | dose: 25.0 mg/kg/injection, schedule: Q01DX001 (ip), vehicle: Klucel (hydroxypropylcellulose) (HPC) 100 % of control | [22] 100 % of control

O=C(Nc1cccc(Cl)c1)OCCCc1ccncc1
inactive: [1] 96 % of control | [3] 96 % of control

Nc1nsc2nc3ccccc3cc12
inactive: dose: 6.25 mg/kg/injection, schedule: Q01DX005 (ip), vehicle: Klucel (hydroxypropylcellulose) (HPC) 102 % of control | [20] 100 % of control | [12] 99 % of control | [7] 112 % of control | [8] 102 % of control

CCN(CC)CCN1C(=O)NC2(CCCCC2)C1=O
inactive: [13] 101 % of control | [14] 100 % of control | [15] 99 % of control

S=C(Nc1ccc(Cl)c(Cl)c1)N1c2ccccc2-n2cccc2C1c1cccnc1 (stereo not drawn)
inactive: dose: 25.0 mg/kg/injection, schedule: Q01DX009 (ip), vehicle: Klucel (hydroxypropylcellulose) (HPC) 115 % of control | [16] 113 % of control | [17] 113 % of control | [18] 121 % of control

O=C1C2=Cc3ccccc3CN2Cc2ccccc21
inactive: dose: 18.75 mg/kg/injection, schedule: Q01DX009 (ip), vehicle: saline with Tween-80 111 % of control | dose: 37.5 mg/kg/injection, schedule: Q01DX009 (ip), vehicle: saline with Tween-80 90 % of control

COc1cc2c(cc1OC)CN(C)C(C)C2 (stereo not drawn)
inactive: dose: 12.5 mg/kg/injection, schedule: Q01DX005 (ip), vehicle: saline 101 % of control | dose: 25.0 mg/kg/injection, schedule: Q01DX005 (ip), vehicle: saline 106 % of control | dose: 50.0 mg/kg/injection, schedule: Q01DX005 (ip), vehicle: saline 109 % of control and 97 % of control

CC(=O)N(O)c1ccccc1-c1ccccc1
inactive: [1] 103 % of control | [3] 99 % of control | [4] 97 % of control

O=c1ccn2c(=O)n1CCCCn1cnc3ncnc(c31)SCCC2
inactive: [22] 94 % of control | dose: 100.0 mg/kg/injection, schedule: Q01DX001 (ip), vehicle: Klucel (hydroxypropylcellulose) (HPC) 86 % of control | dose: 200.0 mg/kg/injection, schedule: Q01DX001 (ip), vehicle: Klucel (hydroxypropylcellulose) (HPC) 90 % of control | dose: 400.0 mg/kg/injection, schedule: Q01DX001 (ip), vehicle: Klucel (hydroxypropylcellulose) (HPC) 90 % of control

Cc1c(-c2ccccc2)ccnc1/C=N/NC(=S)NCCc1ccccn1
inactive: dose: 6.25 mg/kg/injection, schedule: Q01DX009 (ip), vehicle: saline with Tween-80 113 % of control | [21] 107 % of control and 111 % of control | [19] 115 % of control and 117 % of control | [1] 120 % of control and 122 % of control | [3] 86 % of control
